Laboratory results: US11878070B2, “Silk-based moisturizer compositions and methods thereof” (Evolved By Nature, Inc., priority 2015, dated 2024)

Columns and labels:
Format in all cases: physicochemical
[1] = Silk gel formation (days to gelation / time to gel); details: 100 mg of vitamin C derivative in 15 mL of 2% silk solution
Excerpt: Samples 1-10 were used to examine the effect of silk to vitamin C ratio on serum gelation. Samples 1-3 with less vitamin C gelled quicker than samples 4 and 5. All other conditions were kept constant. Samples 6-8 with less vitamin C gelled quicker than samples 9 and 10. All other conditions were kept constant. It is concluded that decreasing the ratio of silk to vitamin C (increasing the amount of vitamin C) will lengthen the time to gel creation.
Samples 1, 3, 6, 8, O-1, O-2, O-3, and O-4 were used to examine the effect of temperature treatment on serum gelation time. Samples 1, 6, O-1, and O-2 were identical other than temperature treatment. Samples 3, 8, O-3, and O-4 were identical other than temperature treatment. The two groups differed in silk to vitamin C ratio. Time to serum gelation was directly related to temperature treatment with a higher temperature resulting in quicker serum gelation.
All treatments of silk solution for gel solution were in a conical tube at room temperature unless otherwise stated. […] Temperature affected gel creation time with higher temperatures resulting in quicker gel times. 50° C. treatment gelled in as quick as 2 days, 37° C. treatment gelled in as quick as 3 days, room temperature treatment gelled in 5-8 days and storage in a refrigerator took at least 39 days to gel. The effects of additives on gel creation were dependent on the additive. Vitamin E, Rosemary Oil and Rose Oil all had no effect on gel creation. […] Each also required the presence of vitamin C to gel. Lemon juice from a fresh lemon, pre-squeezed lemon juice from a plastic lemon container and lemon grass oil did affect gel creation. […] Both lemon juice types were able to cause gelation without the presence of vitamin C. This occurred in the same number of days as with vitamin C. The lemongrass oil was able to decrease the number of days to gelation to 2-3 days. Ail additives appeared soluble other than lemongrass oil and rose oil. Rose oil remained in yellow bubbles while the lemongrass oil was partially soluble and formed an albumen like chunk. […]

[2] = Dissolution of vitamin C derivative in aqueous silk solution
Excerpt: Ascorbyl tetraisopalmitate is a highly viscous, oil soluble liquid that might need the help of an emulsifier to possible dissolve in aqueous silk solution.

[3] = HPLC chromatograms of samples comprising vitamin C (degradation products); details: after 1 hour at ambient conditions without chemical stabilization
Experimental: No degradation products were visible.
No degradation products were visible. FIG. 59 is a table summarizing the vitamin C concentration in silk protein fragment-films (2% silk films air dried at RT) of the present disclosure. In FIG. 59 processing conditions included 100° C. extraction for 20 min, RT rinse, LiBr in 60° C. oven for 4-6 hours, FIG. 60 is a table summarizing the stability of vitamin C in chemically stabilized solutions. FIGS. 89A-89B are tables summarizing vitamin C stability in SPF gels without chemical stabilizers as compared to chemically stabilized vitamin C in competitive anti-aging skincare products. […] Without wishing to be bound by theory, it appears there is a relationship between vitamin C concentration, silk concentration, and gelation. An increase in vitamin C at a given concentration of silk will result in a longer time to gelation or inhibit gelation. This may be due to the vitamin C molecule physically blocking interaction between silk protein fragments or cross-linking of silk protein.

Compound | time to gel formation [1] | also measured
O=C1O[C@H]([C@@H](O)CO)C(O)=C1O[C@H]1O[C@H](CO)[C@@H](O)[C@H](O)[C@H]1O [Ascorbic acid-2-glucoside, Ascorbic Acid-2-Glucoside] | 3 days | 
CCCCCCCCC(CCCCCC)C(=O)OC[C@H](OC(=O)C(CCCCCC)CCCCCCCC)[C@H]1OC(=O)C(OC(=O)C(CCCCCC)CCCCCCCC)=C1OC(=O)C(CCCCCC)CCCCCCCC (some centres unmarked) [Ascorbyl tetraisopalmitate, Ascorbyl Tetraisopalmitate] |  | ability to dissolve or be dispersed in aqueous silk solution [2]: unable to dissolve or be dispersed
O=C1O[C@H]([C@@H](O)CO)C([O-])=C1OP(=O)([O-])[O-].[Na+].[Na+].[Na+] [Sodium ascorbyl phosphate from Aromantic, Sodium Ascorbyl Phosphate] | failed to create a gel | 
O=C1O[C@H]([C@@H](O)CO)C([O-])=C1OP(=O)([O-])[O-].[Na+].[Na+].[Na+] [Sodium ascorbyl phosphate from DSM, Sodium Ascorbyl Phosphate] | 28 days | 
O=C1O[C@H]([C@@H](O)CO)C(O)=C1O [vitamin C, L-ascorbic acid] |  | degradation products (HPLC) [3]: degradation products are visible
